Consider six compounds from ChEMBL document CHEMBL1157742, “Oxepinochromenones, furochromenone, and their putative precursors from the endolichenic fungus Coniochaeta sp” (J Nat Prod, 2010).

One may read the IC50 as the midpoint of a concentration-inhibition curve.

What all share (type): functional, cell-based
One assay concerns HeLa. Put plainly: Cytotoxicity against human HeLa cells after 48 hrs by MTT assay. For orientation: Tetrazolium dyes change colour on reduction, which living cells bring about.
The test system of a further assay is HepG2. As to the kind of experiment: Cytotoxicity against human HepG2 cells after 48 hrs by MTT assay. The following applies: HepG2, 48 h.
A further assay has as its system A549. As to the kind of experiment: Cytotoxicity against human A549 cells after 48 hrs by MTT assay. The following applies: A549, 48 h.
For a further assay, the system named is MDA-MB-231. Put plainly: Cytotoxicity against human MDA-MB-231 cells after 48 hrs by MTT assay. The following applies: MDA-MB-231, 48 h.

On to `COC(=O)[C@@]1(O)c2c(oc3cc(C)cc(O)c3c2=O)O[C@@H]1CCO` [CONIOFUROL A], for which the IC50 with HeLa, in the assay on HepG2, in the assay on A549 and in the assay on MDA-MB-231 was > 120 µM in each case.

`COC(=O)[C@@H]1c2c(oc3cc(C)cc(O)c3c2=O)OC=C[C@@H]1O` [CONIOXEPINOL A]: the IC50 was 104 µM in the assay with HeLa, > 120 µM in the assay on HepG2, > 120 µM in the assay on A549 and > 120 µM with MDA-MB-231.

Regarding `COC(=O)[C@@H]1c2c(oc3cc(CO)cc(O)c3c2=O)OC=C[C@@H]1O` [CONIOXEPINOL B], the IC50 in the assay on HeLa was 36.2 µM; with HepG2, > 120 µM; in the assay with A549, > 120 µM; in the assay with MDA-MB-231 it was > 120 µM.

With `COC(=O)[C@@]1(O)c2c(oc3cc(C)cc(O)c3c2=O)OC=C[C@@H]1O` [CONIOXEPINOL C], the IC50 was > 120 µM in the assay on HeLa, > 120 µM with HepG2, 83.6 µM in the assay on A549 and 112 µM with MDA-MB-231.

Regarding `COC(=O)[C@]12Oc3cc(C)cc(O)c3C(=O)C1=C(O)OC=C[C@H]2O` [CONIOXEPINOL D], the IC50 in the assay on HeLa is > 120 µM; in the assay on HepG2, > 120 µM; in the assay on A549, 40.9 µM; with MDA-MB-231, 41.4 µM.

In the case of `O=c1[nH]cc(F)c(=O)[nH]1` [FLUOROURACIL], the IC50 in the assay with HeLa was found to be 10 µM.
